According to patent US7674813B2, “Heterocyclic sulfonamide inhibitors of beta amyloid production containing an azole” (Wyeth, priority 2004, dated 2010):

Assays:
beta amyloid 42 = assay: Aβ40/42 ELISA Assay (Aβ42); format: cell-based; conditions: CHO cells carrying the APP-REP-NL plasmid, 22 hours, sandwich ELISA; for EC50: Cricetulus griseus
Method: (§1) Compounds are diluted from DMSO stocks to 2 μM and below in a cell culture medium. Compounds are then applied to CHO cells carrying the APP-REP-NL plasmid [Sudhir et. al, J. Biolog. Chem. 267:25602-25608 (1992)] for a period of 22 hours. After the conditioning period, medium is collected, diluted in assay buffer containing protein, and samples, controls, and synthetic peptide standards are incubated on a prepared ELISA plate. Using a sandwich ELISA with antibodies specifically directed against the carboxyl terminus of beta amyloid 40 or 42 (analogous to the method reported by Haugabook et al., J. Neurosci. Methods 108:171-179 (2001) but using goat anti-mouse IgG1 (source: Southern Biotech) as the anchor, 6E10 as the capture antibody (Source: SENETEK), rabbit antiAβ40 and antiAβ42 (source: QCB) and APL-donkey anti-rabbit IgG (H+L, source: Southern Biotech) as the detection antibody), the effect of the compound treatment on the cellular production of extracellular beta amyloid is quantified. Cells treated with compound are subsequently incubated in cell culture medium containing MTS-formazan. After a short incubation period, MTS/medium containing plates are read in a spectrophotometer to determine the extent to which compound toxicity affected the cell's metabolism and ability to synthesize beta amyloid.
(§2) A. Test Samples: compound samples are supplied as 20 mM stock solutions in a 100% DMSO solution.
(§3) B. APP-REP-NL cells: Qualified cell lines are carried from week to week using 1:100 dilutions and are cultured in DMEM supplemented with 1× antibiotic/antimycotic, 200 ug/ml of G418 antibiotic, and 10% certified fetal calf serum. Cells are also banked in liquid nitrogen. Periodically, beta amyloid production is assessed, and cells are either kept in culture or replaced with progenitors at full expression.
(§4) C. Antibodies: From certified lots that have already been qualified in this assay. Antibodies are stored in small frozen aliquots at −80° C. that are thawed and used.
(§5) A compound is considered active if it has an EC50 for Aβ40 reduction of <100 μM and no toxicity at doses in the vicinity of the EC50.

[1] = test system: amyloid precursor protein (APP) proteolysis; assay: Repressor Release Assay (RRA); format: cell-based; design: key to RRA data (footnote symbols): **: Inactive due to toxicity; however, this compound, at 3-4 μM, reduces Aβ levels by 50% in CHO cells transfected with human APP695 as measured by ELISA without exhibiting toxicity.; ***: Inactive; however, this compound, at 1-4 μM, reduces Aβ levels by 50% in CHO cells transfected with human APP695 as measured by ELISA without exhibiting toxicity; conditions: transfected CHO-K1 cells; for fold induction at 20 µg/mL: Cricetulus griseus, CHO-K1, all compounds tested at 20 μg/mL, luciferase activity over diluent control, read-out: RRA data (Fold increase of APPI)
Method: The beta amyloid inhibitory activity of many of the compounds of the present invention has been determined using the Repressor Release Assay (RRA). See, Table 3 below. A compound is considered active in RRA if it leads to at least a 1.5 fold increase in luciferase activity at 20 μg/mL and is non-toxic.
The compound is considered active in RRA if it leads to at least a 1.5 fold increase in APPI as measured by an increase in luciferase activity at 20 μg/mL and is non-toxic. Shuey, D. J., Sheiffele, P., Jones, D., Cockett, M. I., and Quinet, E. M. (1999) Repressor release: a useful tool for monitoring amyloid precursor protein (APP) proteolysis in mammalian cells. Society for Neuroscience Abstracts, Vol. 25, 29th Annual Meeting of Society for Neuroscience, Miami Beach, Fla., Oct. 23-28, 1999.
CHO—K1 cells are cultured in whole DMEM media (DMEM—High Glucose with 10% fetal bovine serum, 1% Non-essential Amino Acids, and 1% Penicillin-Streptomycin) at 37° C. with 5% CO2. Two million cells are plated into 10-cm dishes 24 hrs prior to transfection.
Transient transfections are completed as recommended by Gibco BRL using their Lipofectamine Plus system. First, 6 μg of pRSVO-luc and 6 μg of APP-lacI construct DNA are added to 460 μL Opti-Mem transfection media and incubated with 30 μL Plus reagent for 15 minutes. Then, a lipid mixture of 40 μL Lipofectamine reagent and 460 μL Opti-Mem transfection media is incubated with the DNA-Plus reagent mixture for 15 minutes. During the DNA-lipid incubation, the CHO—K1 cells are washed once and covered in 5.0 mL DMEM media without Penicillin-Streptomycin. The DNA-lipid preparation is then layered onto these cells and incubated at 37° C. overnight.
One and one half million transfected cells per well (100 μL total volume) are plated into sterile, opaque Packard 96-well Cultur-Plates in clear DMEM whole media (DMEM—without phenol red) and incubated at 37° C. with 5% CO2 for 3-5 hours.
Compounds are diluted using two different protocols; one protocol is used for compounds supplied neat (weighed powder in vial) and the other protocol is used for compounds supplied in solution (20 mM in DMSO in 96-well plates). For both protocols, 25 mM Hepes and 25 mM Hepes/1% DMSO are prepared fresh to be used as diluent. The Hepes/DMSO is used as the diluent control on all experimental plates.
The following Table 1 depicts the steps for compound dilution (the last step is the addition of compound to cells/media in tissue culture plate):
Because some compounds arrive in 96-well format at 20 mM, the following Table 2 represents the protocol for their dilution (an average molecular weight of these compounds was used to calculate these dilutions and as above, the last step is the addition of compound to cells/media in tissue culture plate):
Once compounds are diluted, they are applied in duplicate on cells in tissue culture plates (prepared above). Cells are incubated with compound at 37° C. with 5% CO2 for an additional 36-48 hours.
Luciferase assays (LucLite reagent, Packard) are performed and are read on a Packard TopCount instrument. Media is removed from each 96-well plate and replaced with 100 μL PBS per well (with Mg^2+ and Ca^2+). An equal volume (100 μL) of the LucLite lysis/substrate buffer is added to each well and the plates are sealed and mixed in the dark on a rotary shaker for 15-30 minutes at room temperature. Luciferase readings are then taken on the TopCount instrument. Measurements are expressed as relative light units (RLU) and are calculated and analyzed in MS Excel as follows:
Fold Increase: amount of luciferase activity (measured in relative light units) over diluent control.
SEM: standard error of the mean for fold increase.
Activity: A compound is considered active if it results in at least a 1.5 fold increase in luciferase activity at 20 μg/mL.
Toxicity: determined by loss of signal (<0.75 fold increase).

beta amyloid 40 = assay: Aβ40/42 ELISA Assay (Aβ40); format: cell-based; conditions: Cricetulus griseus; CHO cells carrying the APP-REP-NL plasmid, 22 hours, sandwich ELISA
Method: as §1, §2, §3, §4, §5

Row | EC50 (beta amyloid 42) [µM] | EC50 (beta amyloid 40) [µM] | melting point [°C] | SMILES | fold induction at 20 µg/mL [1] | Effect on Aβ42 production (beta amyloid 42) | RRA data (footnote symbols) ([1]; tested at 20 μg/mL)
1 | 4.4 | 3.5 | – | Cc1cccc(-n2nccc2C(NS(=O)(=O)c2ccc(Cl)s2)C(C)C)c1 (centres unmarked) [Example 16, 5-Chloro-N-{2-methyl-1-[1-(3-methylphenyl)-1H-pyrazol-5-yl]propyl}thiophene-2-sulfonamide] | 4 | – | –
2 | 10.7 | 5.9 | – | CCC(CC)C(NS(=O)(=O)c1ccc(Cl)s1)c1ccnn1-c1ccc(C(F)(F)F)cc1 (centres unmarked) [Example 18, 5-Chloro-N-(2-ethyl-1-{1-[4-(trifluoromethyl)phenyl]-1H-pyrazol-5-yl}butyl)thiophene-2-sulfonamide] | 2.3 | – | –
3 | 4.3 | 2.4 | – | CCC(CC)C(NS(=O)(=O)c1ccc(Cl)s1)c1ncnn1Cc1ccc(OC(F)(F)F)cc1 (centres unmarked) [Example 20, 5-Chloro-N-(2-ethyl-1-{1-[4-(trifluoromethoxy)benzyl]-1H-1,2,4-triazol-5-yl}butyl)thiophene-2-sulfonamide] | 9.8 | – | –
4 | 1.5 | 1.5 | – | CCC(CC)C(NS(=O)(=O)c1ccc(Cl)s1)c1ncnn1Cc1ccccc1 (centres unmarked) [Example 22, N-[1-(1-Benzyl-1H-1,2,4-triazol-5-yl)-2-ethylbutyl]-5-chlorothiophene-2-sulfonamide] | 7.2 | – | –
5 | 52.5 | 50.7 | – | CCC(CC)C(NS(=O)(=O)c1ccc(Cl)s1)c1nccn1Cc1ccc(OC)cc1 (centres unmarked) [Example 29, 5-Chloro-N-{2-ethyl-1-[1-(4-methoxybenzyl)-1H-imidazol-2-yl]butyl}thiophene-2-sulfonamide] | 1.9 | – | –
6 | 9.8 | 5.2 | – | CCC(CC)C(NS(=O)(=O)c1ccc(Cl)s1)c1nccn1Cc1ccc(O)cc1 (centres unmarked) [Example 30, 5-Chloro-N-{2-ethyl-1-[1-(4-hydroxybenzyl)-1H-imidazol-2-yl]butyl}thiophene-2-sulfonamide] | 8.6 | – | –
7 | – | 13.3 | – | COc1ccc(Cn2cccc2C(NS(=O)(=O)c2ccc(Cl)s2)C(C)C)cc1 (centres unmarked) [Example 32, 5-Chloro-N-{1-[1-(4-methoxybenzyl)-1H-pyrrol-2-yl]-2-methylpropyl}thiophene-2-sulfonamide] | 6.6 | increase | –
8 | 4.3 | 2.6 | – | CCC(CC)C(NS(=O)(=O)c1ccc(Cl)s1)c1ccnn1OCc1ccccc1 (centres unmarked) [Example 33, N-{1-[1-(Benzyloxy)-1H-pyrazol-5-yl]-2-ethylbutyl}-5-chlorothiophene-2-sulfonamide] | – | – | **
9 | 10.1 | 5.8 | 159 to 160 | O=S(=O)(NC(c1ccc(F)cc1)c1ccnn1-c1ccc(F)cc1)c1ccc(Cl)s1 (centres unmarked) [Example 34, 5-Chloro-N-{(4-fluorophenyl) [1-(4-fluorophenyl)-1H-pyrazol-5-yl]methyl}thiophene-2-sulfonamide] | – | – | –
10 | – | 23 | 135 to 136.4 | CCC(CC)C(NS(=O)(=O)c1ccc(Cl)cc1)c1ccnn1-c1ccccc1 (centres unmarked) [Example 36, 4-Chloro-N-[2-ethyl-1-(1-phenyl-1H-pyrazol-5-yl)butyl]benzenesulfonamide] | – | increase | –
11 | – | 85.2 | 134.6 to 136.6 | CCC(CC)C(NS(=O)(=O)c1ccc(C#N)cc1)c1ccnn1-c1ccccc1 (centres unmarked) [Example 37, 4-Cyano-N-[2-ethyl-1-(1-phenyl-1H-pyrazol-5-yl)butyl]benzenesulfonamide] | – | increase | –
12 | – | 13.3 | 116 to 119.6 | CCC(CC)C(NS(=O)(=O)c1cc(Cl)c(Cl)s1)c1ccnn1-c1ccccc1 (centres unmarked) [Example 38, 4,5-Dichloro-N-[2-ethyl-1-(1-phenyl-1H-pyrazol-5-yl)butyl]thiophene-2-sulfonamide] | – | increase | –
13 | – | 25.5 | 56 to 66 | CCC(CC)C(NS(=O)(=O)c1ccc(Cl)c(Cl)c1)c1ccnn1-c1ccccc1 (centres unmarked) [Example 39, 3,4-Dichloro-N-[2-ethyl-1-(1-phenyl-1H-pyrazol-5-yl)butyl]benzenesulfonamide] | – | increase | –
14 | 7.5 | 4.1 | 120 to 120.7 | CCC(CC)C(NS(=O)(=O)c1ccc(Br)s1)c1ccnn1-c1ccccc1 (centres unmarked) [Example 40, 5-Bromo-N-[2-ethyl-1-(1-phenyl-1H-pyrazol-5-yl)butyl]thiophene-2-sulfonamide] | – | – | –
15 | – | 47.9 | 37.8 to 54 | CCC(CC)C(c1ccnn1-c1ccccc1)N(C)S(=O)(=O)c1ccc(C#N)cc1 (centres unmarked) [Example 43, 4-Cyano-N-[2-ethyl-1-(1-phenyl-1H-pyrazol-5-yl)butyl]-N-methylbenzenesulfonamide] | – | increase | –
16 | – | 35.7 | 86.5 to 89 | CCC(CC)C(c1ccnn1-c1ccccc1)N(C)S(=O)(=O)c1ccc(Cl)cc1 (centres unmarked) [Example 44, 4-Chloro-N-[2-ethyl-1-(1-phenyl-1H-pyrazol-5-yl)butyl]-N-methylbenzenesulfonamide] | – | – | –
17 | – | 33.6 | 99 to 100.4 | CCC(CC)C(c1ccnn1-c1ccccc1)N(C)S(=O)(=O)c1cc(Cl)c(Cl)s1 (centres unmarked) [Example 45, 4,5-Dichloro-N-[2-ethyl-1-(1-phenyl-1H-pyrazol-5-yl)butyl]-N-methylthiophene-2-sulfonamide] | – | increase | –
